Source: patent US10494332B2, “Protein tyrosine phosphatases or SHP2 inhibitors and uses thereof” (Indiana University Research and Technology Corporation, priority 2015, dated 2019)
Entries after “also recorded” stand apart in the source; their conditions may differ.

Experiments:
SKBR3 cells = experiment: Cell growth in 3D Matrigel; type: cell-based; settings: 5 days
Protocol: (§1) Approximately 300,000 SKBR3 cells were seeded into 150 μL of growth factor reduced Matrigel (BD) that was then covered with 2 mLs of media containing either 20 μL vehicle (DMSO) or the indicated concentrations of compound 2. Cells were then imaged at 24-hour intervals using a NIKON SMZ1500 stereomicroscope. After 5 days the cells were recovered from the Matrigel by the following method. Media was aspirated and cells were washed with 500 μL of cold PBS. 150 μL of RIPA lysis buffer supplemented with ProteCEASE-50. EDTA Free protease inhibitors (GBiosciences) was added to the Matrigel. Cells were scraped into a slurry and instantly frozen using dry ice for 5 minutes. After thawing tubes were spun down at 4° C. for 10 minutes at 14K rpm. Proteins were then resolved by SDS-PAGE and the relative levels of total and phospho-ERK1/2 were detected by immunoblot analysis.

PP5 = molecular target: T1, PP5 (Homo sapiens, UniProt P53041); experiment: biochemical
T1 sequence (P53041 1-499): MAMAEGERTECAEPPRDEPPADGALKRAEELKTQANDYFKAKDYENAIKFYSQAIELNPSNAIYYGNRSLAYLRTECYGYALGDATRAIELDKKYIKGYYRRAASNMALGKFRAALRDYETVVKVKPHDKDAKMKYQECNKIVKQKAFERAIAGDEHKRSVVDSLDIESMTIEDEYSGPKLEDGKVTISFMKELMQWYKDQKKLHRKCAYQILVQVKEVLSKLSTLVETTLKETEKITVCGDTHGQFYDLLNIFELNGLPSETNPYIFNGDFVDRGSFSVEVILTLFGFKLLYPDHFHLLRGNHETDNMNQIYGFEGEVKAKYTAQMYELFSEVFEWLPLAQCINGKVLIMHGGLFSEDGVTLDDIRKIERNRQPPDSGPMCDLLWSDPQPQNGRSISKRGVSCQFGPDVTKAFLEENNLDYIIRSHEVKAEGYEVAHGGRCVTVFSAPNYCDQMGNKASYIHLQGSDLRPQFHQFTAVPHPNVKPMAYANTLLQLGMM

PTPμ = PTPμ (Homo sapiens, UniProt P28827); experiment: biochemical
Chain of PTPμ (P28827 21-1452): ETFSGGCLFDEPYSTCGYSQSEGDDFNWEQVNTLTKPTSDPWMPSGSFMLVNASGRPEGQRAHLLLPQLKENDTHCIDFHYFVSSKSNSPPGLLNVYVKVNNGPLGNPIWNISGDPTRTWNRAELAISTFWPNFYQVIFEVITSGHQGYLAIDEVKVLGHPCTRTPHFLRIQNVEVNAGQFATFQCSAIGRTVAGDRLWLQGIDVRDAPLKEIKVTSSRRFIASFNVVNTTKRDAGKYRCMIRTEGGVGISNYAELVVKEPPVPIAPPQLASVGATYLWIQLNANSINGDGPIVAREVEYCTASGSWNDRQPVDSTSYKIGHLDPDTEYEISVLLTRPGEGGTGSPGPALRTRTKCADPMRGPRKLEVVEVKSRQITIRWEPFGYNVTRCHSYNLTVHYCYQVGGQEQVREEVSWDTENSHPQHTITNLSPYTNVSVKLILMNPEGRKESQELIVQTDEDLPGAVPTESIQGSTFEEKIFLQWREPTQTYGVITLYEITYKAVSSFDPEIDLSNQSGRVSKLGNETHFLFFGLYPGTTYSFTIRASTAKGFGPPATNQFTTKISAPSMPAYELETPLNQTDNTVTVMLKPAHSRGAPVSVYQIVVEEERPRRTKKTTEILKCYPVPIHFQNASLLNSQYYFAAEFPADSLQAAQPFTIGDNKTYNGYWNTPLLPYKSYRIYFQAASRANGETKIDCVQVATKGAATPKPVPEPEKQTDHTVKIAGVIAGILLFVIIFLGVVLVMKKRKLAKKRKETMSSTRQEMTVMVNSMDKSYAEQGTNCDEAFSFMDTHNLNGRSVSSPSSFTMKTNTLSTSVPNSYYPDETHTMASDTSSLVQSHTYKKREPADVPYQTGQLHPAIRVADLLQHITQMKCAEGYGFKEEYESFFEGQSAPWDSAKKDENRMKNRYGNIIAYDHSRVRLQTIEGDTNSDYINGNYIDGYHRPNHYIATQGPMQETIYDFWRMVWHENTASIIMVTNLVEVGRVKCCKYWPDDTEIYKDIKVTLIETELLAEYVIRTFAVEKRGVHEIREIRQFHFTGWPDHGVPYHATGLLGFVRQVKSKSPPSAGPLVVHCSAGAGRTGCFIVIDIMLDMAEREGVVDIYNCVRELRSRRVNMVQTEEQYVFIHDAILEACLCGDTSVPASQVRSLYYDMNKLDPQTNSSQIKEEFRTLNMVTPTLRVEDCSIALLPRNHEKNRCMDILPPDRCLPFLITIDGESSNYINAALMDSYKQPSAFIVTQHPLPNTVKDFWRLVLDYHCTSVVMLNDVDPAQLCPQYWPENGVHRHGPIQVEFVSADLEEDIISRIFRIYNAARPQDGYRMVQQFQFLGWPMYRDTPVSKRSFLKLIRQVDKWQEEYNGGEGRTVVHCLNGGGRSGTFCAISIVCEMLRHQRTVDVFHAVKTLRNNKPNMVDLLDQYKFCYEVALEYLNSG

[1] = system: ERK1/2 phosphorylation in SKBR3 cells; experiment: ERK1/2 immunoblot of cells recovered from Matrigel; type: cell-based; settings: 5 days
Protocol: as §1

[2] = system: PMA-stimulated ERK1/2 phosphorylation; experiment: PMA-induced ERK1/2 phosphorylation immunoblot; type: cell-based, human
Protocol: (§2) Human non-small cell lung carcinoma cell line H1975 was cultured at 37° C. and 5% CO2 in RPMI-1640 (Corning) supplemented with 10% fetal bovine serum (HyClone). Human breast cancer cell line MDA-MB-231 was cultured in DMEM supplemented with 10% fetal bovine serum. For cell proliferation assay, 2˜3×10^3 cells were seeded in each well of 96-well plates. After treating cells with compounds for 2 days, cells were incubated with 50 μg/ml MTT (3-(4,5-Dimethylthiazol-2-yl)-2,5-diphenyltetrazolium bromide) for ˜3-4 hours. Then, the culture medium was removed, DMSO was added to dissolve the formazan crystals. Wells containing only media were used for background correction. The optical density was measured spectrophotometrically at 540 nm. For signaling analysis, cells were serum-starved overnight followed by treatment with vehicle or compounds for 3 hours, and then either left un-stimulated or stimulated with 5 μg/ml EGF or 10 nM PMA (Sigma) for indicated time. Cells were lysed and the lysates were electrophoresed on a 10% polyacrylamide gel, and then transferred to a nitrocellulose membrane, and probed with anti-phospho-ERK1/2 and anti-ERK1/2 (Cell Signaling) antibodies followed by incubation with horseradish peroxidase-conjugated secondary antibodies. The blots were developed by the enhanced chemiluminescence technique using the SuperSignal West Pico Chemiluminescent substrate (Pierce).

SHP2 = molecular target: T2, SHP2 (Homo sapiens, UniProt Q06124); experiment: SHP2 phosphatase inhibition assay (pNPP); type: biochemical
T2 sequence (Q06124 224-528): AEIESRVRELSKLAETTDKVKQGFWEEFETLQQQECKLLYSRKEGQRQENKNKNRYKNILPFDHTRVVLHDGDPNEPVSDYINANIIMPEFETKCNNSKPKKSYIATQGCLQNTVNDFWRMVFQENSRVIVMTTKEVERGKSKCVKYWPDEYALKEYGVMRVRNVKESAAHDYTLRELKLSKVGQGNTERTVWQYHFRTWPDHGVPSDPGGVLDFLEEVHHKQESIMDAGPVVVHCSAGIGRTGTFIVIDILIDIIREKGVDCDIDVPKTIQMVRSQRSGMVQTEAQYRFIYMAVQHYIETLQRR

[3] = system: H1975 non-small cell lung cancer (NSCLC) cell line; experiment: MTT cell proliferation assay; type: cell-based, human; settings: 20 μM and 40 μM, 2 days
Protocol: as §2

[4] = system: MDA-MB-231 breast cancer cell line; experiment: MTT cell proliferation assay; type: cell-based, human; settings: 20 μM and 40 μM, 2 days
Protocol: as §2

[5] = system: EGF-mediated ERK1/2 phosphorylation in H1975 cells; experiment: EGF-induced ERK1/2 phosphorylation immunoblot; type: cell-based, human; settings: compound 7 at 40 μM
Protocol: as §2

Q: For `O=C(Nc1ccc(I)cc1)C(=O)Nc1ccc(NC(=O)C(c2ccccc2)S(=O)(=O)O)cc1` (stereo not drawn) [Compound 2, 2-((4-(2-((4-iodophenyl)amino)-2-oxoacetamido)phenyl)amino)-2-oxo-1-phenylethanesulfonic acid], which “SKBR3 cell growth in Matrigel” value (SKBR3 cells; 20 μM) is on record?
A: partial inhibition

Q: And the “SKBR3 cell growth in Matrigel” value (SKBR3 cells; 40 μM)?
A: almost completely absent

Q: And the IC50 (PP5)?
A: > 10 µM

Q: What about the IC50 (PTPμ) of the same compound?
A: > 10 µM

Q: And the “ERK1/2 activity in SKBR3 cells in Matrigel” value ([1]; 20 μM)?
A: partial inhibition

Q: What about the “ERK1/2 activity in SKBR3 cells in Matrigel” value ([1]; 40 μM) of the same compound?
A: barely detectable

Q: And the “Effect on PMA-stimulated ERK1/2 phosphorylation” value [2]?
A: no effect on PMA-stimulated ERK1/2 phosphorylation

Q: What about the IC50 (SHP2; Example 9: SHP2 catalytic domain 20 nM, pNPP 3 mM, pH 7.0, 25° C., read-out: IC50 SHP2) of the same compound?
A: 1.51 ± 0.06 µM

Q: And the “Fold selectivity for SHP2 against PTPs examined” value (SHP2; cefsulodin: with the exception of SHP1)?
A: at least 4 fold

Q: And the “H1975 cell proliferation (MTT)” value [3]?
A: reduce H1975 cell proliferation in a dose dependent manner; also recorded: dose dependently inhibited; also recorded: significantly (**p<0.01) reduced cell proliferation

Q: What about the “MDA-MB-231 cell survival/growth (MTT)” value [4] of the same compound?
A: dose dependently inhibited; also recorded: significantly (**p<0.01) reduced cell survival

Q: And the “Effect on EGF-mediated ERK1/2 phosphorylation” value [5]?
A: reduced EGF-mediated ERK1/2 phosphorylation in a dose-dependent manner; also recorded: decrease the EGF-mediated ERK1/2 phosphorylation in a dose dependent manner
